From ChEMBL document CHEMBL5233239, “Matrix metalloproteinase-9 (MMP-9) and its inhibitors in cancer: A minireview” (Eur J Med Chem, 2020)
Values belong to the compound of their own block, whether it stands above or below them.

Experiments:
[1] = target: T1, Matrix metalloproteinase-9 (Homo sapiens, UniProt P14780); experiment: Inhibition of human MMP-9
[2] = target: T2, 72 kDa type IV collagenase (Homo sapiens, UniProt P08253); experiment: Inhibition of human MMP-2
Target sequence in this assay (P08253 whole entry): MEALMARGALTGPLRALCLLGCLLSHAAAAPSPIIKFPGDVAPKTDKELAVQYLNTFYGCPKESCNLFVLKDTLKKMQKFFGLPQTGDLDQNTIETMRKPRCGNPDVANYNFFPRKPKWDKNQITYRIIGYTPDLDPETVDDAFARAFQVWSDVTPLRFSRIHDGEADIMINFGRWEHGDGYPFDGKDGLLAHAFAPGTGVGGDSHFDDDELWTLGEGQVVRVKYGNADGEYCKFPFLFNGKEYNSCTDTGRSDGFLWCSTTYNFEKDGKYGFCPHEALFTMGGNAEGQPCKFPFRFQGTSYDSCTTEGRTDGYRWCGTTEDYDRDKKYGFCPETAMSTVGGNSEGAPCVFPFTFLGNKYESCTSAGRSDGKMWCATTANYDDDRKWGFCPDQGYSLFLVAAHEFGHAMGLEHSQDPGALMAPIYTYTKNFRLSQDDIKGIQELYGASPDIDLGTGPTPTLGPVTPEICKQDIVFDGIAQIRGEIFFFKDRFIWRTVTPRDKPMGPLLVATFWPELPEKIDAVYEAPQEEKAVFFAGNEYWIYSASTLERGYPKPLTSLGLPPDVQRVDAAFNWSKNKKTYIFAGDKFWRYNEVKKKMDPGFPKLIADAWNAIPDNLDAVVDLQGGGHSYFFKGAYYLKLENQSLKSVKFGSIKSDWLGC

Neutrophil collagenase = Neutrophil collagenase (Homo sapiens, UniProt P22894); experiment: Inhibition of MMP-8 (unknown origin) at 20 uM by fluorometric assay
[3] = target: T3, Matrilysin (Homo sapiens) (UniProt P09237); experiment: Inhibition of MMP-7 (unknown origin) at 20 uM by fluorometric assay
T3 sequence (whole entry): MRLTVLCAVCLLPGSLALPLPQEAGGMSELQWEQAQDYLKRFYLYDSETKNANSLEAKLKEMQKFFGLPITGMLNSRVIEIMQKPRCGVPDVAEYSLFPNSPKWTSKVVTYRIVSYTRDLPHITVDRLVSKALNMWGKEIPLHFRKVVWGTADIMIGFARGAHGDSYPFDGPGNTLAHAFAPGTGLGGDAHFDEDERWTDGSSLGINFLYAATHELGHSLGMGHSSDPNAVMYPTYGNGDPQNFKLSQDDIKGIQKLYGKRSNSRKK

[4] = target: T2, 72 kDa type IV collagenase; experiment: Inhibition of MMP-2 (unknown origin) at 20 uM by fluorometric assay
Target sequence in this assay (P08253 110-660 limits assumed): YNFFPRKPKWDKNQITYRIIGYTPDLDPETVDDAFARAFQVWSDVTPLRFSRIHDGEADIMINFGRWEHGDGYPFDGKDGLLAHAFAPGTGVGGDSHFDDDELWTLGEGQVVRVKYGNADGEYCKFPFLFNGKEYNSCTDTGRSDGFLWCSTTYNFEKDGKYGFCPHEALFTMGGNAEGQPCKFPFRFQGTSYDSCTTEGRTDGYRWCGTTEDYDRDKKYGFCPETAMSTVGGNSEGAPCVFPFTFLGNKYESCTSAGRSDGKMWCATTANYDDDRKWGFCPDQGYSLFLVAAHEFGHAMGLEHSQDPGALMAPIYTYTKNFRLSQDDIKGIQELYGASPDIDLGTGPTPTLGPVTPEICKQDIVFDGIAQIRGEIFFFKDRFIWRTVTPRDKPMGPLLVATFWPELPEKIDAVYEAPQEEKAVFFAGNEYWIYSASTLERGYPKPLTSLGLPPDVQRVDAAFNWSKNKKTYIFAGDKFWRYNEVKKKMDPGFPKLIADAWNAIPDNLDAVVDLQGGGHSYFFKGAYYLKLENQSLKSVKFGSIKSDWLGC

Stromelysin-1 [5] = target: T4, Stromelysin-1 (Homo sapiens, UniProt P08254); experiment: Inhibition of MMP-3 (unknown origin) at 20 uM by fluorometric assay
Target sequence in this assay (P08254 100-477 limits assumed): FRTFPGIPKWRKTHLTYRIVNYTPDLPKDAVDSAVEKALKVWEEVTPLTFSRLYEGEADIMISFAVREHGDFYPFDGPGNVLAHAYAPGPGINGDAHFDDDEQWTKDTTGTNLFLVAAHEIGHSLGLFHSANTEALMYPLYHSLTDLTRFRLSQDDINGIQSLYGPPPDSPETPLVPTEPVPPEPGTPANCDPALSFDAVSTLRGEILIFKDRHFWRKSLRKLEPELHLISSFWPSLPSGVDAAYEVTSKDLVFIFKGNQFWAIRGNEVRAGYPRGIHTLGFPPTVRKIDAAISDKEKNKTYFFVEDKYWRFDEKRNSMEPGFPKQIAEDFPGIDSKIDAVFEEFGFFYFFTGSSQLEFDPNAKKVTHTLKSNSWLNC

[6] = target: T1, Matrix metalloproteinase-9; experiment: Inhibition of MMP-9 (unknown origin) at 20 uM by fluorometric assay
[7] = target: Matrix metalloproteinase-14 (Homo sapiens) (UniProt P50281); experiment: Inhibition of MMP-14 (unknown origin) at 20 uM by fluorometric assay
[8] = target: Macrophage metalloelastase (Homo sapiens) (UniProt P39900); experiment: Inhibition of MMP-12 (unknown origin) at 20 uM by fluorometric assay
Interstitial collagenase [9] = target: T5, Interstitial collagenase (Homo sapiens, UniProt P03956); experiment: Inhibition of MMP-1 (unknown origin)
T5 sequence (P03956 whole entry): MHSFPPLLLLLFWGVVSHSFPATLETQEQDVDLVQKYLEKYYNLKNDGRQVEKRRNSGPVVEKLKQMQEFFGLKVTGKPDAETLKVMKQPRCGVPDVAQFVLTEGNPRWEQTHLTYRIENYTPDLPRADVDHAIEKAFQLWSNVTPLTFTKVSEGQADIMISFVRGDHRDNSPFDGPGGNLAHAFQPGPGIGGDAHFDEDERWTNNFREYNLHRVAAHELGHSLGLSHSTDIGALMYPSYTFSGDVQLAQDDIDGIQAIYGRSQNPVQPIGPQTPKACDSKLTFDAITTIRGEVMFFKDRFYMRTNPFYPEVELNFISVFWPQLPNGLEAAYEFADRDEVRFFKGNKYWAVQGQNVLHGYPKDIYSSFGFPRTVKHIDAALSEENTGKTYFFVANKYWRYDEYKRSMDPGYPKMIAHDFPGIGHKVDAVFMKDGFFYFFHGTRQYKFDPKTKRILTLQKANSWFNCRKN

Collagenase 3 [10] = target: T6, Collagenase 3 (Homo sapiens, UniProt P45452)
Description: Inhibition of MMP-13 (unknown origin)

[11] = target: T1, Matrix metalloproteinase-9; experiment: Inhibition of MMP-9 (unknown origin)
[12] = target: Disintegrin and metalloproteinase domain-containing protein 17 (Homo sapiens, UniProt P78536); experiment: Inhibition of TACE (unknown origin)
[13] = target: T2, 72 kDa type IV collagenase; experiment: Inhibition of MMP-2 (unknown origin) assessed as inhibition constant using Mca-Pro-Leu-Gly-Dpa-Ala-Arg-NH2 substrate preincubated for 1 hr followed by substrate addition and measured after 1 hr by fluorimetric analysis
Target sequence in this assay (P08253 whole entry): as the sequence (P08253 whole entry) above

[14] = target: T1, Matrix metalloproteinase-9; experiment: Inhibition of MMP-9 (unknown origin) assessed as inhibition constant using Mca-Pro-Leu-Gly-Dpa-Ala-Arg-NH2 substrate preincubated for 1 hr followed by substrate addition and measured after 1 hr by fluorimetric analysis
[15] = target: T1, Matrix metalloproteinase-9; experiment: Inhibition of MMP-9 (unknown origin) using Ac-PLG-[2-mercapto-4-methylpentanoyl]-LG-OC2H5) as substrate measured upto 20 mins by microplate reader analysis
[16] = target: T2, 72 kDa type IV collagenase; experiment: Inhibition of MMP-2 (unknown origin) using Ac-PLG-[2-mercapto-4-methylpentanoyl]-LG-OC2H5) as substrate measured upto 20 mins by microplate reader analysis
Target sequence in this assay (P08253 whole entry): as above

[17] = target: T1, Matrix metalloproteinase-9; experiment: Inhibition of human MMP9 using Dnp-Pro-Cha-Gly-Cys(ME)-His-Ala-Lys(Nma)-NH2 as substrate preincubated for 0.5 hrs followed by substrate addition and measured after 6 hrs by fluorimeter analysis
Stromelysin-1 [18] = target: T4, Stromelysin-1; experiment: Inhibition of human MMP3 using (7-methoxycoumarine-4-yl)-Arg-Pro-Lys-Pro-Tyr-Ala-Nva-Trp-Met-Lys(Dnp)-NH2 as substrate preincubated for 0.5 hrs followed by substrate addition and measured after 6 hrs by fluorimeter analysis
Target sequence in this assay (P08254 whole entry): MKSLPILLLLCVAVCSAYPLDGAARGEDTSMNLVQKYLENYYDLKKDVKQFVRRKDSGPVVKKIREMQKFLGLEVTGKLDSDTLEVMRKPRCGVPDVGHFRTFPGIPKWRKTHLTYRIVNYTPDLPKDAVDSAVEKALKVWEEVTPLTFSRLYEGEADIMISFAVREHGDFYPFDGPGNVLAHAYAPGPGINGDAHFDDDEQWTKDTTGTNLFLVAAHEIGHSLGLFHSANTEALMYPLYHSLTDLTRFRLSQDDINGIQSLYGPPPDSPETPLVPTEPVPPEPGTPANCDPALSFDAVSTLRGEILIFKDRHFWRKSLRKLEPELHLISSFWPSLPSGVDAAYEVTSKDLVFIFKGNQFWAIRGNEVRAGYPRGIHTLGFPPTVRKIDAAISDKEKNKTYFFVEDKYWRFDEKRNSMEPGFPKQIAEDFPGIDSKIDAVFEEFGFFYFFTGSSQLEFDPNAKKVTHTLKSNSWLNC

Interstitial collagenase [19] = target: T5, Interstitial collagenase; experiment: Inhibition of human MMP1 using Dnp-Pro-Cha-Gly-Cys(ME)-His-Ala-Lys(Nma)-NH2 as substrate preincubated for 0.5 hrs followed by substrate addition and measured after 6 hrs by fluorimeter analysis
[20] = target: T2, 72 kDa type IV collagenase; experiment: Inhibition of human MMP2 using Dnp-Pro-Cha-Gly-Cys(ME)-His-Ala-Lys(Nma)-NH2 as substrate preincubated for 0.5 hrs followed by substrate addition and measured after 6 hrs by fluorimeter analysis
Target sequence in this assay (P08253 whole entry): as the sequence (P08253 whole entry) above

Collagenase 3 [21] = target: T6, Collagenase 3; experiment: Inhibition of human MMP13 using Dnp-Pro-Cha-Gly-Cys(ME)-His-Ala-Lys(Nma)-NH2 as substrate preincubated for 0.5 hrs followed by substrate addition and measured after 6 hrs by fluorimeter analysis
[22] = target: T1, Matrix metalloproteinase-9; experiment: Inhibition of human MMP9 incubated for 1 hrs followed by chromogenic substrate addition and measured after 30 mins by microplate photometer analysis
[23] = target: T2, 72 kDa type IV collagenase; experiment: Inhibition of human MMP2 incubated for 1 hrs followed by chromogenic substrate addition and measured after 30 mins by microplate photometer analysis
Target sequence in this assay (P08253 whole entry): as above

Collagenase 3 [24] = target: T6, Collagenase 3; experiment: Inhibition of recombinant human MMP13 using […] as substrate incubated for 20 to 30 mins by fluorescence microplate reader analysis
[25] = target: T1, Matrix metalloproteinase-9; experiment: Inhibition of recombinant human MMP9 using […] as substrate incubated for 20 to 30 mins by fluorescence microplate reader analysis
Interstitial collagenase [26] = target: T5, Interstitial collagenase; experiment: Inhibition of recombinant human MMP1 expressed in Escherichia coli BL21 (DE3) using Mca-Pro-Leu-Gly-Leu-Dpa-Ala-Arg-NH2 as substrate incubated for 20 to 30 mins by fluorescence assay
Matrilysin = target: T7, Matrilysin (Homo sapiens, UniProt P09237); experiment: Inhibition of recombinant human MMP7 using […] as substrate incubated for 20 to 30 mins by fluorescence microplate reader analysis
T7 sequence (P09237 whole entry): T3 sequence (whole entry)

Stromelysin-1 [27] = target: T4, Stromelysin-1; experiment: Inhibition of recombinant human MMP3 expressed in Escherichia coli BL21 (DE3) using [3H]transferrin as substrate incubated for 3 hrs by scintillation counter analysis
Target sequence in this assay (P08254 whole entry): as the sequence (P08254 whole entry) above

[28] = target: T2, 72 kDa type IV collagenase; experiment: Inhibition of MMP-2 (unknown origin) by fluorimetric assay
Target sequence in this assay (P08253 whole entry): as the sequence (P08253 whole entry) above

[29] = target: T1, Matrix metalloproteinase-9; experiment: Inhibition of MMP-9 (unknown origin) by fluorimetric assay

T1 sequence (P14780 whole entry): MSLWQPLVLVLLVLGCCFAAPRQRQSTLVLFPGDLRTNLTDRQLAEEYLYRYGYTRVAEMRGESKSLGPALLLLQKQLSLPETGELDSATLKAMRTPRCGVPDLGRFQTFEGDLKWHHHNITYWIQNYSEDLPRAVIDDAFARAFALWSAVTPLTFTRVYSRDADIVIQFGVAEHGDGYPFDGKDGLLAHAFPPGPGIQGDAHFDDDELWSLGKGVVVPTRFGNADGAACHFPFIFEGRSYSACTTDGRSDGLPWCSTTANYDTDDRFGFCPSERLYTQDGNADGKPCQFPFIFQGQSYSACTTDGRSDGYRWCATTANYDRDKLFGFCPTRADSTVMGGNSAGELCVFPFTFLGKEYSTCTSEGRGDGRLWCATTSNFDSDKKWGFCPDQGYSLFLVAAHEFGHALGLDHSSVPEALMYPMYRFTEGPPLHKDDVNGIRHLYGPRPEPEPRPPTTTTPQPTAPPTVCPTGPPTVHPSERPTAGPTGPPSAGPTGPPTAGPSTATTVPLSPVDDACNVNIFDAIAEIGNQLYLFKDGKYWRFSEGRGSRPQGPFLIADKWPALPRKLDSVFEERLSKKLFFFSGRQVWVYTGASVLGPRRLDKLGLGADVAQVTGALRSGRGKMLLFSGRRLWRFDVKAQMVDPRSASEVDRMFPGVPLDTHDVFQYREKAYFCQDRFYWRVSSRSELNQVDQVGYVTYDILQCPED
Disintegrin and metalloproteinase domain-containing protein 17, sequence (P78536 whole entry, the tested form may be a part): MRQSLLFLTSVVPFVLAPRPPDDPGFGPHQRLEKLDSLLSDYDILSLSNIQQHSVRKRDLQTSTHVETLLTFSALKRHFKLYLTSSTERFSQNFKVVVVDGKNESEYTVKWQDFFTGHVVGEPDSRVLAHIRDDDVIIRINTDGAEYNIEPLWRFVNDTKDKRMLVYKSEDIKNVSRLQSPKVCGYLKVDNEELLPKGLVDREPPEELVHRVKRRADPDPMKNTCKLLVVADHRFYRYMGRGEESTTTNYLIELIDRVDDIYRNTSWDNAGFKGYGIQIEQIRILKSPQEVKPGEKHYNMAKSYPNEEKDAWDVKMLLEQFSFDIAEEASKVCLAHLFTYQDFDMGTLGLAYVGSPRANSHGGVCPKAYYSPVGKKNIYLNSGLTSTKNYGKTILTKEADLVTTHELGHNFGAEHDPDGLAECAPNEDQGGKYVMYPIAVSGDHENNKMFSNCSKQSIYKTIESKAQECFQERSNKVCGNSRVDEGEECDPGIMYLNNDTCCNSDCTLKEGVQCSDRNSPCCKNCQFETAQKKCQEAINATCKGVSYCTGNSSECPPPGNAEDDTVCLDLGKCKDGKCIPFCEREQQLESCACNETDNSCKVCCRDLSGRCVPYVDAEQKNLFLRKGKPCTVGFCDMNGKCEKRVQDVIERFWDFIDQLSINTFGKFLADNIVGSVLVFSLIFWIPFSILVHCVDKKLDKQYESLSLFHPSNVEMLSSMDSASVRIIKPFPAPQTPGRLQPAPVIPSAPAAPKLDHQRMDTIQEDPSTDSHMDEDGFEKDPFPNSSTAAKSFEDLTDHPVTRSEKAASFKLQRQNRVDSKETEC
Macrophage metalloelastase (Homo sapiens), sequence (P39900 106-470 limits assumed): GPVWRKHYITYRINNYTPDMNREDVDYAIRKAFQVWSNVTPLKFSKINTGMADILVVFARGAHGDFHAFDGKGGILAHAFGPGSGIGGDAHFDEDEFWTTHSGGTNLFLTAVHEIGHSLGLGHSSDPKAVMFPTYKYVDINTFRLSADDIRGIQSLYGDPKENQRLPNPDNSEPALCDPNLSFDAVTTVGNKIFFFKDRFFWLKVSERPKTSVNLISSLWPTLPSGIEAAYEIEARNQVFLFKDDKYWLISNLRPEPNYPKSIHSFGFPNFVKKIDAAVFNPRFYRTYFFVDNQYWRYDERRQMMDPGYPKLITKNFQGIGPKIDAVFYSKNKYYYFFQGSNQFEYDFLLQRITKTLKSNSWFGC
Neutrophil collagenase, sequence (P22894 101-467 limits assumed): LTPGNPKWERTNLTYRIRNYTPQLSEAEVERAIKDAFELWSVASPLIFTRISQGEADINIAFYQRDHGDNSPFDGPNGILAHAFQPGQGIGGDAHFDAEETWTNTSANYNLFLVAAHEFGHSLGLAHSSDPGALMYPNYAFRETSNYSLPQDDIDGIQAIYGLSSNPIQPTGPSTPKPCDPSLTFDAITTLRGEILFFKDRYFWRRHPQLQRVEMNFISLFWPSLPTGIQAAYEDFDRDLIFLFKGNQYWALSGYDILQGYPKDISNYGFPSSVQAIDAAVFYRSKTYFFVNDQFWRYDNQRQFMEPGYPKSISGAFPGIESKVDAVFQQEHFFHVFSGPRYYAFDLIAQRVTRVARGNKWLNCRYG

Structure (SMILES): FC(F)(F)c1ccc(N2CC2Cn2cc(CCCCCCc3cn(CC4CN4c4ccc(C(F)(F)F)cc4)nn3)nn2)cc1 (configuration not stated)
- inhibition (Neutrophil collagenase): 34.9%
- inhibition [3]: 27.5%
- inhibition [4]: 80.5%
- inhibition (Stromelysin-1 [5]): 27.1%
- inhibition [6]: 29.6%
- inhibition [7]: 22.3%
- inhibition [8]: 26%

Structure (SMILES): CCCCCCCCCC[C@@H](CC(=O)NO)C(=O)N[C@H](C(=O)NC)c1ccccc1
- IC50 [13]: 1.6 nM
- IC50 [14]: 0.2 nM

Structure (SMILES): O=C(NO)C1(S(=O)(=O)c2ccc(-n3cc(-c4ccc(-c5cncnc5)cc4)nn3)cc2)CCOCC1
- IC50 [15]: 0.8 nM
- IC50 [16]: 0.5 nM

Structure (SMILES): O=C(O)[C@H]1[C@H](CN2C(=O)c3ccccc3C2=O)CC[C@@H]1SCc1ccc(-c2ccc(Cl)cc2)cc1
- IC50 [17]: 13 nM
- IC50 (Stromelysin-1 [18]): 45 nM
- IC50 (Interstitial collagenase [19]): 50000 nM
- IC50 [20]: 73 nM
- IC50 (Collagenase 3 [21]): 129 nM

Structure (SMILES): O=C(O)CC[C@@H](NC(=O)Cc1ccc(Br)cc1)C(=O)NCc1ccc([N+](=O)[O-])cc1
- IC50 [22]: 4830 nM
- IC50 [23]: 6400 nM

Next, values leading:

- IC50 [1]: 0.2 nM
- IC50 [2]: 0.7 nM
Structure (SMILES): CCCN(C(CSC)C(=O)NO)S(=O)(=O)c1ccc(OC)cc1 (configuration not stated)

- IC50 (Interstitial collagenase [9]): 213 nM
- IC50 (Collagenase 3 [10]): 11 nM
- IC50 [11]: 3 nM
- IC50 [12]: 243 nM
Structure (SMILES): COc1ccc(S(=O)(=O)N(C)c2c(C)cc(Cc3ccc(CN(C)C)cc3)cc2C(=O)NO)cc1

- IC50 (Collagenase 3 [10]): 16 nM
- IC50 [11]: 3 nM
Structure (SMILES): CCCCOc1ccc(S(=O)(=O)C2(C(=O)NO)CCN(Cc3ccccc3)CC2)cc1

- IC50 (Interstitial collagenase [9]): 3100 nM
- IC50 (Collagenase 3 [10]): 16 nM
- IC50 [11]: 9 nM
- IC50 [12]: 401 nM
Structure (SMILES): COc1ccc(S(=O)(=O)N(Cc2ccccc2)c2c(C(=O)NO)ccc3c(C(C)(C)C)cccc23)cc1

- IC50 (Collagenase 3 [24]): 57 nM
- IC50 [25]: 32 nM
- IC50 (Interstitial collagenase [26]): 944 nM
- IC50 (Matrilysin): 27700 nM
- IC50 (Stromelysin-1 [27]): 184 nM
Structure (SMILES): COc1ccc(S(=O)(=O)N2CCN(c3cccnc3)CC2C(=O)NO)cc1 (configuration not stated)

- IC50 [28]: 0.36 nM
- IC50 [29]: 0.092 nM
Structure (SMILES): O=CN(O)C(CS(=O)(=O)c1ccc(Oc2ccc(OC(F)(F)F)cc2)cc1)[C@@H](O)CO (some centres not stated)
